Source: US11351140B2, “Resolvin mimetic antibodies and uses thereof” (J. Craig Venter Institute, Inc., priority 2017, dated 2022)

B1: C4: resolvimab, anti-ERV-1 monoclonal antibody; VH SEQ ID NO: 14, VK SEQ ID NO: 16 (antibody, V domains shown)
VH: EVKLEESGAELVMPGASVKLSCKASGYTFTSYWMHWVKQRPGQGLEWVAEIDPSDSYTNYNQKFKGKATLTVDKSSSTAYMQLSSLTSEDSAVYYCARDGDILTTVVAKGFVYWGQGTLV
VL: LSLPVSLGDQASISCRSSQTIVHSNGNTYLEWYLQKPGQSPKLLIYKVSNRFSGVPDRFSGSGSGTDFTLKISRVEAEDLGVYYCFQGSHVPWTFGGGTKLEIK
modifications: Immunoglobulin VH Region; Immunoglobulin VL(K) region

Assays:
[1] = target: T1, ERV-1 receptor (CHO-ERV-1 positive cells) (Homo sapiens, UniProt Q99788); test: Intracellular calcium signaling (Calcium5 FLIPR) in CHO ERV1+ cells; type: cell-based; conditions: 1, 10, 100 nM
T1 construct: host or cells: CHO-K1/CMKLR1/Ga15 (CHO ERV1+)
T1 sequence (Q99788 1-373): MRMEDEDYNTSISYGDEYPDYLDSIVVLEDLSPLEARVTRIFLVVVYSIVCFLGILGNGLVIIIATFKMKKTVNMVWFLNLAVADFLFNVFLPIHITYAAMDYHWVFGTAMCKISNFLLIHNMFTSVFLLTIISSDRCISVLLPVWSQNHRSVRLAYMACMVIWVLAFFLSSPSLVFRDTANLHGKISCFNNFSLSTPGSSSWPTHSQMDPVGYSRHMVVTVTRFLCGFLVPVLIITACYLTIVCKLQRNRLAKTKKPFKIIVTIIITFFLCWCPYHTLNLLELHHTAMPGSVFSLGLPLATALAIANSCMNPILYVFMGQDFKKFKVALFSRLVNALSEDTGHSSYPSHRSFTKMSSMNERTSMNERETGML
Protocol: To investigate calcium mobilization, cells were transferred to a 96-well plate at density of 60,000 cells per well in 80 μl of growth medium 18 hours prior to the day of experiment and maintained at 37° C./5% CO2.
After aspiration of the media, cells were labeled with the fluorescent probe, Calcium5 FLIPR (Medical Devices). After agonist treatment, detection of changes in fluorescence were detected by microplate reader and expressed as change in relative fluorescence units (ΔRFU).
To investigate calcium mobilization, CHO ERV1+ cells were transferred to a 96-well plate at density of 60,000 cells per well in 80 μl of growth medium 18 hours prior to the day of experiment and maintained at 37° C./5% CO2. After aspiration of the media, cells were labeled with the fluorescent probe, Calcium5 FLIPR (Medical Devices). After agonist treatment, detection of changes in fluorescence were detected by microplate reader and expressed as change in relative fluorescence units (ARFU).
To determine whether the immune complexes between ERV-1 receptor and various anti-ERV-1 antibodies permit the bound immune complex to interact with ERV-1 cellular receptor functions, an in vitro assay was devised. To that end, calcium intracellular signaling was measured upon agonist ligand binding. […] After 20 seconds, calcium mobilization was measured through fluorescence (FIG. 15). […]

ERV1tg mice = test: Zymosan-induced peritonitis, peritoneal lavage cells by flow cytometry; type: in vivo; conditions: injected together with zymosan; 12 hours of inflammation
Protocol: Cells were extracted from peritoneal exudates collected after 12 hours of intraperitoneal injection of zymosan-A (1 mg/ml in PBS). Isolated cells were incubated with anti-Fc receptor (BD) blocking antibody (5 μg/ml×106 cells, 15 min) and then labeled with anti-human ERV1 alexafluor 488-conjugated antibody (10 μg/ml×106 cells, 1 hour at RT) or anti-IgG alexafluor 488 (isotype control, R&D Systems). Expression of ERV1 on neutrophils was evaluated by immunofluorescence and quantified by flow cytometry. ERV-1, […] positive monocytes were stained with PE-conjugated anti-mouse Arg-1 and FITC-conjugated anti-mouse EGR-(10 μg/ml×106 cells, 1 hour at RT) (BD Biosciences).
Peritonitis was initiated by zymosan particle injections […] to ERV1tg mice peritoneal tissues. It had been previously established that Resolvin-E1 could affect inflammation-related responses in an ERV-1 dependent manner in vivo in cells derived from diabetic subjects (Freire, M. et al., J. Immunol. 198(2):718-728 (2017)). To further understand the biological response induced by resolvimabs, purified clones were injected together with the zymosan stimuli (FIGS. 9A-D). […] We have looked if these compound would influence the phenotype of neutrophils and monocytes after 12 hours of inflammation in vivo.

Molecule	agonist functions (calcium intracellular signaling) [1]	inflammatory infiltrate (flow cytometry quantification) (ERV1tg mice)
CC[C@@H](O)/C=C/C=C\C[C@@H](O)/C=C/C=C/C=C\[C@@H](O)CCCC(=O)O [resolvinE-1, resolvin E1]	found	–
B1	–	decrease
